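Values below derive from 48-hour exposures of cells grown in 96-well plates, with endpoints linearly interpolated between the two concentrations bracketing the appropriate inhibition level. GI50 = concentration required for 50% inhibition of growth. TGI marks complete inhibition of growth.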
Columns and labels:
Assay in all cases: NCI tumour cell line growth inhibition, 48 h
UO-31 renal = test system: UO-31 renal
OVCAR-3 ovarian = test system: OVCAR-3 ovarian
OVCAR-4 ovarian = test system: OVCAR-4 ovarian
A498 renal = test system: A498 renal
UACC-62 melanoma = test system: UACC-62 melanoma
MOLT-4 leukemia = test system: MOLT-4 leukemia
HOP-62 NSCLC = test system: HOP-62 NSCLC
T-47D breast = test system: T-47D breast
NCI-H460 lung = test system: NCI-H460 lung
A549 NSCLC = test system: A549 NSCLC
NCI-H522 lung = test system: NCI-H522 lung
RPMI-8226 leukemia = test system: RPMI-8226 leukemia
SF-295 CNS = test system: SF-295 CNS
SW-620 colon = test system: SW-620 colon
OVCAR-8 ovarian = test system: OVCAR-8 ovarian
M14 melanoma = test system: M14 melanoma
786-0 renal = test system: 786-0 renal
SNB-19 CNS = test system: SNB-19 CNS
MCF7 breast = test system: MCF7 breast
SK-MEL-5 melanoma = test system: SK-MEL-5 melanoma
BT-549 breast = test system: BT-549 breast
NCI-H226 lung = test system: NCI-H226 lung
CCRF-CEM leukemia = test system: CCRF-CEM leukemia
IGROV1 ovarian = test system: IGROV1 ovarian
KM12 colon = test system: KM12 colon
NCI/ADR-RES ovarian = test system: NCI/ADR-RES ovarian
LOX IMVI melanoma = test system: LOX IMVI melanoma
RXF 393 renal = test system: RXF 393 renal
HOP-92 NSCLC = test system: HOP-92 NSCLC
MDA-MB-435 = test system: MDA-MB-435
MDA-MB-231 breast = test system: MDA-MB-231 breast
SK-MEL-2 melanoma = test system: SK-MEL-2 melanoma
UACC-257 melanoma = test system: UACC-257 melanoma
SN12C renal = test system: SN12C renal
SF-268 CNS = test system: SF-268 CNS
SF-539 CNS = test system: SF-539 CNS
SNB-75 CNS = test system: SNB-75 CNS
EKVX NSCLC = test system: EKVX NSCLC
HCT-116 colon = test system: HCT-116 colon
CAKI-1 renal = test system: CAKI-1 renal
PC-3 prostate = test system: PC-3 prostate
HT29 colon = test system: HT29 colon
HCT-15 colon = test system: HCT-15 colon
U251 CNS = test system: U251 CNS
SK-MEL-28 melanoma = test system: SK-MEL-28 melanoma
MALME-3M melanoma = test system: MALME-3M melanoma
HCC-2998 colon = test system: HCC-2998 colon
SK-OV-3 ovarian = test system: SK-OV-3 ovarian
ACHN renal = test system: ACHN renal
NCI-H23 lung = test system: NCI-H23 lung
DU-145 prostate = test system: DU-145 prostate
OVCAR-5 ovarian = test system: OVCAR-5 ovarian
HS 578T breast = test system: HS 578T breast
TK-10 renal = test system: TK-10 renal
COLO 205 colon = test system: COLO 205 colon

**Q.** Which GI50 (UO-31 renal) does the source give for `COC(=O)[C@@]1(C)CCC[C@]2(C)[C@H]3Cc4occc4[C@H](C)[C@@H]3CC[C@@]12O` here?
**A.** 37.5 µM

**Q.** And the TGI (UO-31 renal)?
**A.** > 100 µM

**Q.** And the GI50 (OVCAR-3 ovarian)?
**A.** 17.3 µM

**Q.** What about the TGI (OVCAR-3 ovarian) of the same compound?
**A.** 59 µM

**Q.** And the GI50 (OVCAR-4 ovarian)?
**A.** 92.3 µM

**Q.** What about the TGI (OVCAR-4 ovarian) of the same compound?
**A.** > 100 µM

**Q.** And the GI50 (A498 renal)?
**A.** 17.9 µM

**Q.** What about the TGI (A498 renal) of the same compound?
**A.** 46.6 µM

**Q.** What about the GI50 (UACC-62 melanoma) of the same compound?
**A.** 17.5 µM

**Q.** And the TGI (UACC-62 melanoma)?
**A.** > 100 µM

**Q.** And the GI50 (MOLT-4 leukemia)?
**A.** 17.3 µM

**Q.** What about the TGI (MOLT-4 leukemia) of the same compound?
**A.** 80.3 µM

**Q.** And the GI50 (HOP-62 NSCLC)?
**A.** 33.7 µM

**Q.** And the TGI (HOP-62 NSCLC)?
**A.** > 100 µM

**Q.** And the GI50 (T-47D breast)?
**A.** 26.4 µM

**Q.** And the TGI (T-47D breast)?
**A.** > 100 µM

**Q.** And the GI50 (NCI-H460 lung)?
**A.** 16.3 µM

**Q.** And the TGI (NCI-H460 lung)?
**A.** 49.2 µM

**Q.** What about the GI50 (A549 NSCLC) of the same compound?
**A.** 34.4 µM

**Q.** And the TGI (A549 NSCLC)?
**A.** > 100 µM

**Q.** What about the GI50 (NCI-H522 lung) of the same compound?
**A.** 31.4 µM

**Q.** What about the TGI (NCI-H522 lung) of the same compound?
**A.** 98.5 µM

**Q.** What about the GI50 (RPMI-8226 leukemia) of the same compound?
**A.** 17.9 µM

**Q.** What about the TGI (RPMI-8226 leukemia) of the same compound?
**A.** > 100 µM

**Q.** What about the GI50 (SF-295 CNS) of the same compound?
**A.** 21.1 µM

**Q.** And the TGI (SF-295 CNS)?
**A.** 66.8 µM

**Q.** And the GI50 (SW-620 colon)?
**A.** 44.1 µM

**Q.** And the TGI (SW-620 colon)?
**A.** > 100 µM

**Q.** What about the GI50 (OVCAR-8 ovarian) of the same compound?
**A.** 35 µM

**Q.** And the TGI (OVCAR-8 ovarian)?
**A.** > 100 µM

**Q.** And the GI50 (M14 melanoma)?
**A.** 28.6 µM

**Q.** And the TGI (M14 melanoma)?
**A.** > 100 µM

**Q.** And the GI50 (786-0 renal)?
**A.** 45.8 µM

**Q.** And the TGI (786-0 renal)?
**A.** > 100 µM

**Q.** What about the GI50 (SNB-19 CNS) of the same compound?
**A.** 95.5 µM

**Q.** What about the TGI (SNB-19 CNS) of the same compound?
**A.** > 100 µM

**Q.** And the GI50 (MCF7 breast)?
**A.** 18.2 µM

**Q.** What about the TGI (MCF7 breast) of the same compound?
**A.** > 100 µM

**Q.** And the GI50 (SK-MEL-5 melanoma)?
**A.** 21.1 µM

**Q.** What about the TGI (SK-MEL-5 melanoma) of the same compound?
**A.** 37.4 µM

**Q.** And the GI50 (BT-549 breast)?
**A.** 26.9 µM

**Q.** What about the TGI (BT-549 breast) of the same compound?
**A.** 70.5 µM

**Q.** What about the GI50 (NCI-H226 lung) of the same compound?
**A.** 20.9 µM

**Q.** What about the TGI (NCI-H226 lung) of the same compound?
**A.** 64.7 µM

**Q.** What about the GI50 (CCRF-CEM leukemia) of the same compound?
**A.** 37.2 µM

**Q.** And the TGI (CCRF-CEM leukemia)?
**A.** > 100 µM

**Q.** What about the GI50 (IGROV1 ovarian) of the same compound?
**A.** 30 µM

**Q.** What about the TGI (IGROV1 ovarian) of the same compound?
**A.** > 100 µM

**Q.** What about the GI50 (KM12 colon) of the same compound?
**A.** 16 µM

**Q.** What about the TGI (KM12 colon) of the same compound?
**A.** 32.8 µM

**Q.** What about the GI50 (NCI/ADR-RES ovarian) of the same compound?
**A.** 68.4 µM

**Q.** And the TGI (NCI/ADR-RES ovarian)?
**A.** > 100 µM

**Q.** And the GI50 (LOX IMVI melanoma)?
**A.** 18.4 µM

**Q.** And the TGI (LOX IMVI melanoma)?
**A.** 42.6 µM

**Q.** And the GI50 (RXF 393 renal)?
**A.** 25 µM

**Q.** And the TGI (RXF 393 renal)?
**A.** 93.1 µM

**Q.** What about the GI50 (HOP-92 NSCLC) of the same compound?
**A.** 13.4 µM

**Q.** And the TGI (HOP-92 NSCLC)?
**A.** 57.9 µM

**Q.** What about the GI50 (MDA-MB-435) of the same compound?
**A.** 16.7 µM

**Q.** And the TGI (MDA-MB-435)?
**A.** 38.7 µM

**Q.** What about the GI50 (MDA-MB-231 breast) of the same compound?
**A.** 32.4 µM

**Q.** What about the TGI (MDA-MB-231 breast) of the same compound?
**A.** > 100 µM

**Q.** And the GI50 (SK-MEL-2 melanoma)?
**A.** 26.8 µM

**Q.** And the TGI (SK-MEL-2 melanoma)?
**A.** 72.4 µM

**Q.** What about the GI50 (UACC-257 melanoma) of the same compound?
**A.** 35.6 µM

**Q.** What about the TGI (UACC-257 melanoma) of the same compound?
**A.** > 100 µM

**Q.** What about the GI50 (SN12C renal) of the same compound?
**A.** 21.1 µM

**Q.** What about the TGI (SN12C renal) of the same compound?
**A.** 48 µM

**Q.** And the GI50 (SF-268 CNS)?
**A.** 34 µM

**Q.** And the TGI (SF-268 CNS)?
**A.** > 100 µM

**Q.** What about the GI50 (SF-539 CNS) of the same compound?
**A.** 19.9 µM

**Q.** What about the TGI (SF-539 CNS) of the same compound?
**A.** 40.2 µM

**Q.** And the GI50 (SNB-75 CNS)?
**A.** 55.6 µM

**Q.** And the TGI (SNB-75 CNS)?
**A.** > 100 µM

**Q.** And the GI50 (EKVX NSCLC)?
**A.** 27.7 µM

**Q.** What about the TGI (EKVX NSCLC) of the same compound?
**A.** 71.3 µM

**Q.** What about the GI50 (HCT-116 colon) of the same compound?
**A.** 17.6 µM

**Q.** What about the TGI (HCT-116 colon) of the same compound?
**A.** 42.5 µM

**Q.** What about the GI50 (CAKI-1 renal) of the same compound?
**A.** 41.8 µM

**Q.** And the TGI (CAKI-1 renal)?
**A.** > 100 µM

**Q.** What about the GI50 (PC-3 prostate) of the same compound?
**A.** 26.1 µM

**Q.** What about the TGI (PC-3 prostate) of the same compound?
**A.** > 100 µM

**Q.** And the GI50 (HT29 colon)?
**A.** 20.9 µM

**Q.** What about the TGI (HT29 colon) of the same compound?
**A.** > 100 µM

**Q.** And the GI50 (HCT-15 colon)?
**A.** 73.5 µM

**Q.** And the TGI (HCT-15 colon)?
**A.** > 100 µM

**Q.** What about the GI50 (U251 CNS) of the same compound?
**A.** 18.1 µM

**Q.** What about the TGI (U251 CNS) of the same compound?
**A.** 44 µM

**Q.** And the GI50 (SK-MEL-28 melanoma)?
**A.** > 100 µM

**Q.** What about the TGI (SK-MEL-28 melanoma) of the same compound?
**A.** > 100 µM

**Q.** And the GI50 (MALME-3M melanoma)?
**A.** 21.3 µM

**Q.** What about the TGI (MALME-3M melanoma) of the same compound?
**A.** 52.4 µM

**Q.** And the GI50 (HCC-2998 colon)?
**A.** 34.3 µM

**Q.** What about the TGI (HCC-2998 colon) of the same compound?
**A.** 89.7 µM

**Q.** And the GI50 (SK-OV-3 ovarian)?
**A.** > 100 µM

**Q.** And the TGI (SK-OV-3 ovarian)?
**A.** > 100 µM

**Q.** What about the GI50 (ACHN renal) of the same compound?
**A.** 17.8 µM

**Q.** And the TGI (ACHN renal)?
**A.** 50.2 µM

**Q.** And the GI50 (NCI-H23 lung)?
**A.** 45.3 µM

**Q.** What about the TGI (NCI-H23 lung) of the same compound?
**A.** > 100 µM

**Q.** And the GI50 (DU-145 prostate)?
**A.** 58.7 µM

**Q.** And the TGI (DU-145 prostate)?
**A.** > 100 µM

**Q.** What about the GI50 (OVCAR-5 ovarian) of the same compound?
**A.** 73.7 µM

**Q.** What about the TGI (OVCAR-5 ovarian) of the same compound?
**A.** > 100 µM

**Q.** What about the GI50 (HS 578T breast) of the same compound?
**A.** 20.1 µM

**Q.** And the TGI (HS 578T breast)?
**A.** 41.4 µM

**Q.** And the GI50 (TK-10 renal)?
**A.** 24.5 µM

**Q.** And the TGI (TK-10 renal)?
**A.** > 100 µM

**Q.** And the GI50 (COLO 205 colon)?
**A.** 33.1 µM

**Q.** And the TGI (COLO 205 colon)?
**A.** > 100 µM

Source: PubChem BioAssay (NCI)
